Measurements taken from the CheMixHub viscosity set.

Assay: xn = mol fraction of the nth substance listed

C1COCCO1 + CCCO
viscosity [mPa·s]
Conditions	298.15 K	303.15 K	308.15 K	313.15 K
101 kPa, x1 = 0.4	1.131	–	–	–
101.3 kPa, x1 = 0.0923	1.609	1.42	1.289	1.179
101.3 kPa, x1 = 0.122	1.499	1.332	1.209	1.1
101.3 kPa, x1 = 0.2236	1.284	1.15	1.057	0.9732
101.3 kPa, x1 = 0.2793	1.223	1.084	0.9926	0.9135
101.3 kPa, x1 = 0.3323	1.158	1.065	0.9698	0.8894
101.3 kPa, x1 = 0.3964	1.106	1.014	0.9229	0.8503
101.3 kPa, x1 = 0.4347	1.057	0.9719	0.8966	0.8243
101.3 kPa, x1 = 0.5294	1.04	0.9553	0.8788	0.8135
101.3 kPa, x1 = 0.5833	1.028	0.949	0.8777	0.8149
101.3 kPa, x1 = 0.6365	1.028	0.9503	0.8792	0.8185
101.3 kPa, x1 = 0.6538	1.033	0.9567	0.8791	0.8196
101.3 kPa, x1 = 0.7379	1.051	0.9745	0.9054	0.8374
101.3 kPa, x1 = 0.8132	1.085	0.9921	0.9184	0.8578
101.3 kPa, x1 = 0.8989	1.117	1.028	0.9533	0.887

C1=C[C@H]2[C@@H](C1)[C@H]1C=C[C@@H]2C1 + CCO
viscosity [mPa·s], 101.2 kPa
Conditions	x1 = 0.1001	x1 = 0.1997	x1 = 0.2973	x1 = 0.4003	x1 = 0.501	x1 = 0.6023	x1 = 0.699	x1 = 0.8013	x1 = 0.9002
293.15 K	1.493	1.788	2.076	2.381	2.68	3.001	3.332	3.701	4.073
303.15 K	1.232	1.449	1.657	1.879	2.098	2.339	2.595	2.879	3.161
313.15 K	1.038	1.209	1.369	1.541	1.718	1.911	2.111	2.345	2.579

C1COCCO1 + CCO
viscosity [mPa·s]
Conditions	293.15 K	298.15 K	303.15 K	308.15 K
101 kPa, x1 = 0.0584	–	0.992	–	–
101 kPa, x1 = 0.1156	–	0.938	–	–
101 kPa, x1 = 0.1834	–	0.884	–	–
101 kPa, x1 = 0.2678	–	0.86	–	–
101 kPa, x1 = 0.3	–	0.9243	–	–
101 kPa, x1 = 0.3438	–	0.849	–	–
101 kPa, x1 = 0.4473	–	0.863	–	–
101 kPa, x1 = 0.5589	–	0.885	–	–
101 kPa, x1 = 0.689	–	0.933	–	–
101 kPa, x1 = 0.8264	–	1.029	–	–
101 kPa, x2 = 0.1798	–	1.027	0.9544	0.8897
101 kPa, x2 = 0.324	–	0.9634	0.8928	0.8361
101 kPa, x2 = 0.4539	–	0.9317	0.8654	0.8124
101 kPa, x2 = 0.5608	–	0.9336	0.8661	0.8072
101 kPa, x2 = 0.6591	–	0.9547	0.8825	0.8181
101 kPa, x2 = 0.7972	–	1.025	0.9451	0.8639
101 kPa, x2 = 0.8858	–	1.102	1.008	0.919
101 kPa, x2 = 0.9427	–	1.179	1.068	0.9697
101.33 kPa, x1 = 0.0703	1.069	0.96	0.8879	0.8147
101.33 kPa, x1 = 0.1455	0.9889	0.8885	0.8285	0.7595
101.33 kPa, x1 = 0.2259	0.9468	0.8529	0.7902	0.7308
101.33 kPa, x1 = 0.3126	0.9216	0.8387	0.7727	0.7174
101.33 kPa, x1 = 0.4045	0.9225	0.8391	0.7751	0.7182
101.33 kPa, x1 = 0.5051	0.9277	0.8469	0.7819	0.7278
101.33 kPa, x1 = 0.6163	0.9582	0.8803	0.8165	0.7622
101.33 kPa, x1 = 0.7297	1.029	0.9425	0.8647	0.8101
101.33 kPa, x1 = 0.86	1.135	1.044	0.9699	0.8938
101.33 kPa, x2 = 0.2101	–	–	0.984	–
101.33 kPa, x2 = 0.5822	–	–	0.825	–
101.33 kPa, x2 = 0.7056	–	–	0.798	–
101.33 kPa, x2 = 0.9653	–	–	0.927	–

COC(=O)CC(=O)OC + CCO
303.15 K, 101 kPa
Conditions	viscosity [mPa·s]
x1 = 0.0532	0.972
x1 = 0.1129	0.966
x1 = 0.1787	0.978
x1 = 0.2533	0.998
x1 = 0.337	1.037
x1 = 0.4329	1.097
x1 = 0.5426	1.181
x1 = 0.6705	1.314
x1 = 0.8207	1.513

OCC(F)(F)F + CCO
viscosity [mPa·s]
Conditions	298.15 K	303.15 K	308.15 K	313.15 K	318.15 K	323.15 K
100 kPa, x1 = 0.1081	1.09	1	0.92	0.84	0.77	0.71
100 kPa, x1 = 0.2039	1.09	0.99	0.91	0.83	0.76	0.7
100 kPa, x1 = 0.304	1.1	0.99	0.91	0.83	0.76	0.7
100 kPa, x1 = 0.3989	1.12	1.01	0.92	0.84	0.77	0.7
100 kPa, x1 = 0.508	1.16	1.05	0.95	0.86	0.79	0.72
100 kPa, x1 = 0.601	1.22	1.1	0.99	0.9	0.82	0.75
100 kPa, x1 = 0.7087	1.31	1.18	1.06	0.96	0.87	0.79
100 kPa, x1 = 0.7984	1.4	1.26	1.12	1.02	0.92	0.83
100 kPa, x1 = 0.9032	1.56	1.38	1.23	1.11	0.99	0.9
101 kPa, x1 = 0.01998	1.104	–	–	–	–	–
101 kPa, x1 = 0.0384	1.102	–	–	–	–	–
101 kPa, x1 = 0.05967	1.098	–	–	–	–	–
101 kPa, x1 = 0.1122	1.097	–	–	–	–	–
101 kPa, x1 = 0.1523	1.089	–	–	–	–	–
101 kPa, x1 = 0.2584	1.082	–	–	–	–	–
101 kPa, x1 = 0.3059	1.105	–	–	–	–	–
101 kPa, x1 = 0.5638	1.215	–	–	–	–	–
101 kPa, x1 = 0.8074	1.427	–	–	–	–	–

Brc1ccccc1 + CCOC(C)=O
viscosity [mPa·s], 101 kPa
Conditions	298.15 K	308.15 K
x2 = 0.0463	0.997	0.926
x2 = 0.1501	0.906	0.844
x2 = 0.2468	0.829	0.775
x2 = 0.3482	0.756	0.707
x2 = 0.4571	0.686	0.641
x2 = 0.5073	0.656	0.612
x2 = 0.5465	0.633	0.591
x2 = 0.6468	0.58	0.539
x2 = 0.75	0.53	0.49
x2 = 0.848	0.487	0.447
x2 = 0.9469	0.448	0.407
